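Protocol summary: plate cells (96-well), add compound at 5 concentrations, incubate 48 h, interpolate endpoints linearly. GI50 marks 50% less growth.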 Calls of active or inactive are those of the source. Cut-off read from the data, not from the text of the source: active = GI50 up to about 1.1 µM and inactive = higher.
Tests used:
Experiment in all cases: DTP human tumour cell line panel, 48 h
[1] = test system: SW-620
[2] = test system: SK-MEL-2
[3] = test system: ACHN
[4] = test system: PC-3
[5] = test system: CAKI-1
[6] = test system: MDA-MB-435
[7] = test system: NCI-H522
[8] = test system: RXF 393
[9] = test system: SNB-19
[10] = test system: UACC-62
[11] = test system: SN12C
[12] = test system: LOX IMVI
[13] = test system: BT-549
[14] = test system: UACC-257
[15] = test system: T47D
[16] = test system: OVCAR-3
[17] = test system: NCI/ADR-RES
[18] = test system: SF-295
[19] = test system: SK-MEL-28
[20] = test system: SR

Row | Structure (SMILES) | GI50 [1] | GI50 [2] | GI50 [3] | GI50 [4] | GI50 [5] | GI50 [6] | GI50 [7] | GI50 [8] | GI50 [9] | GI50 [10] | GI50 [11] | GI50 [12] | GI50 [13] | GI50 [14] | GI50 [15] | GI50 [16] | GI50 [17] | GI50 [18] | GI50 [19] | GI50 [20]
1 | O=C(O)CCC1COc2ccccc2O1 (stereo not given) | > 10 µM (inactive) | > 10 µM (inactive) | > 10 µM (inactive) | > 10 µM (inactive) | > 10 µM (inactive) | > 10 µM (inactive) | > 10 µM (inactive) | > 10 µM (inactive) | > 10 µM (inactive) | > 10 µM (inactive) | > 10 µM (inactive) | > 10 µM (inactive) | > 10 µM (inactive) | > 10 µM (inactive) | > 10 µM (inactive) | > 10 µM (inactive) | > 10 µM (inactive) | > 10 µM (inactive) | > 10 µM (inactive) | –
2 | CN(C)CCCn1c2c3ccccc3ccc2c2oc(=O)c3ccccc3c21 | 2 µM (inactive) | 9.23 µM (inactive) | 6.79 µM (inactive) | – | 7.76 µM (inactive) | – | 3.52 µM (inactive) | 1.33 µM (inactive) | 5.96 µM (inactive) | 8.63 µM (inactive) | 5.62 µM (inactive) | 4.63 µM (inactive) | > 40.6 µM (inactive) | 8.65 µM (inactive) | 12.1 µM (inactive) | 5.48 µM (inactive) | 10.8 µM (inactive) | 3.62 µM (inactive) | 7.46 µM (inactive) | 0.914 µM (active)
3 | COc1c2c3c4c(c(OC)c(=O)c5c(O)cc(OC)c(c6c(OC)cc(O)c(c1=O)c63)c54)C(C(C)O)C2C(C)=O (stereo not given) | 0.395 µM (active) | 0.738 µM (active) | 0.497 µM (active) | 0.26 µM (active) | 0.279 µM (active) | 0.295 µM (active) | 0.171 µM (active) | 0.06 µM (active) | 0.264 µM (active) | 0.483 µM (active) | 0.485 µM (active) | 0.244 µM (active) | – | 0.521 µM (active) | 0.454 µM (active) | 0.338 µM (active) | 0.296 µM (active) | 0.256 µM (active) | 0.189 µM (active) | 0.178 µM (active)
4 | CSc1cc(Br)ccc1-n1c(C(=O)c2ccccc2)c(SC)n(-c2ccccc2)c1=O | 19 µM (inactive) | – | > 100 µM (inactive) | 5.53 µM (inactive) | > 100 µM (inactive) | 7.59 µM (inactive) | 54.6 µM (inactive) | – | > 100 µM (inactive) | > 100 µM (inactive) | > 100 µM (inactive) | > 100 µM (inactive) | > 100 µM (inactive) | > 100 µM (inactive) | – | > 100 µM (inactive) | 53.8 µM (inactive) | 84.5 µM (inactive) | > 100 µM (inactive) | 74.5 µM (inactive)
5 | COc1ccc(C2=Nc3c(nc(SC)[nH]c3=O)NC(c3ccccc3)C2)cc1 (stereo not given) | 44.9 µM (inactive) | 29.1 µM (inactive) | 21.8 µM (inactive) | 33.7 µM (inactive) | 17.1 µM (inactive) | 29.2 µM (inactive) | 17.1 µM (inactive) | 20.7 µM (inactive) | 23.8 µM (inactive) | > 10 µM (inactive) | 20.9 µM (inactive) | 30.5 µM (inactive) | 24.8 µM (inactive) | 22.9 µM (inactive) | – | 27.5 µM (inactive) | 20 µM (inactive) | 27.4 µM (inactive) | > 10 µM (inactive) | 73.3 µM (inactive)
6 | O=C1CC(CC(O)C(O)CO)CC(=O)N1 (stereo not given) | > 100 µM (inactive) | – | > 100 µM (inactive) | > 100 µM (inactive) | > 100 µM (inactive) | > 100 µM (inactive) | > 100 µM (inactive) | – | > 100 µM (inactive) | – | > 100 µM (inactive) | > 100 µM (inactive) | > 100 µM (inactive) | > 100 µM (inactive) | > 100 µM (inactive) | > 100 µM (inactive) | > 100 µM (inactive) | > 100 µM (inactive) | > 100 µM (inactive) | –
7 | N#CSC/C(Cl)=C/Cl.N#CSC/C(Cl)=C\Cl | > 100 µM (inactive) | > 100 µM (inactive) | > 100 µM (inactive) | > 100 µM (inactive) | – | > 100 µM (inactive) | > 100 µM (inactive) | > 100 µM (inactive) | > 100 µM (inactive) | > 100 µM (inactive) | > 100 µM (inactive) | 20.4 µM (inactive) | – | > 100 µM (inactive) | > 100 µM (inactive) | > 100 µM (inactive) | > 100 µM (inactive) | > 100 µM (inactive) | > 100 µM (inactive) | > 100 µM (inactive)
8 | COc1ccc(/C=C2\CCC(C)C3C2=NN(c2ccccc2)C3c2ccc(OC)c(OC)c2)cc1OC (stereo not given) | 4.22 µM (inactive) | 3.04 µM (inactive) | 3.84 µM (inactive) | 3.5 µM (inactive) | 3.94 µM (inactive) | 3.64 µM (inactive) | – | 3.23 µM (inactive) | 8 µM (inactive) | 3.43 µM (inactive) | 4.1 µM (inactive) | 2.49 µM (inactive) | 3.24 µM (inactive) | 4.34 µM (inactive) | 1.71 µM (inactive) | 5.04 µM (inactive) | 3.18 µM (inactive) | 2.64 µM (inactive) | 4.97 µM (inactive) | –
9 | C[C@]12CC/C(=N\OCCN3CCCC3)C=C1CCC1C2CC[C@@]2(C)C1CC[C@]2(C)O (stereo not given in full) | – | 16.4 µM (inactive) | 11.1 µM (inactive) | 7.29 µM (inactive) | 7.43 µM (inactive) | 2.28 µM (inactive) | 3.12 µM (inactive) | 19.3 µM (inactive) | 14.7 µM (inactive) | 3.35 µM (inactive) | 7.13 µM (inactive) | 4.33 µM (inactive) | 10.2 µM (inactive) | 5.6 µM (inactive) | 12.3 µM (inactive) | 8.39 µM (inactive) | 3.6 µM (inactive) | 3.35 µM (inactive) | – | –
10 | CN(CCNC(=O)c1nn(-c2ccccc2)c2c1Cc1ccccc1-2)CCNC(=O)c1nn(-c2ccccc2)c2c1Cc1ccccc1-2 | 1.48 µM (inactive) | 1.86 µM (inactive) | 1.74 µM (inactive) | 2.19 µM (inactive) | 2.53 µM (inactive) | 1.61 µM (inactive) | 1.57 µM (inactive) | 1.57 µM (inactive) | 2.14 µM (inactive) | 1.71 µM (inactive) | 1.83 µM (inactive) | 1.74 µM (inactive) | 4.06 µM (inactive) | 1.79 µM (inactive) | 2.48 µM (inactive) | 1.68 µM (inactive) | 2.17 µM (inactive) | 1.81 µM (inactive) | 1.69 µM (inactive) | –
11 | O=C1NNC2NC(=O)C3(NN2C1=O)c1ccccc1-c1ccccc13 (stereo not given) | > 100 µM (inactive) | > 100 µM (inactive) | > 100 µM (inactive) | > 100 µM (inactive) | > 100 µM (inactive) | > 100 µM (inactive) | > 100 µM (inactive) | > 100 µM (inactive) | > 100 µM (inactive) | > 100 µM (inactive) | > 100 µM (inactive) | > 100 µM (inactive) | > 100 µM (inactive) | > 100 µM (inactive) | – | > 100 µM (inactive) | > 100 µM (inactive) | > 100 µM (inactive) | > 10 µM (inactive) | > 100 µM (inactive)
12 | O=C1NC2=NOC(=O)NC2=NO1 | > 200 µM (inactive) | > 200 µM (inactive) | > 200 µM (inactive) | > 200 µM (inactive) | > 200 µM (inactive) | > 200 µM (inactive) | > 200 µM (inactive) | > 200 µM (inactive) | > 200 µM (inactive) | > 200 µM (inactive) | > 200 µM (inactive) | > 200 µM (inactive) | > 200 µM (inactive) | > 200 µM (inactive) | > 200 µM (inactive) | > 200 µM (inactive) | > 200 µM (inactive) | > 200 µM (inactive) | > 200 µM (inactive) | –
13 | CC(=O)OC1c2ccccc2CC2(OC(C)=O)c3ccccc3C12 (stereo not given) | > 100 µM (inactive) | > 100 µM (inactive) | > 100 µM (inactive) | > 100 µM (inactive) | > 100 µM (inactive) | > 100 µM (inactive) | – | > 100 µM (inactive) | > 100 µM (inactive) | > 100 µM (inactive) | > 100 µM (inactive) | > 100 µM (inactive) | – | > 100 µM (inactive) | > 100 µM (inactive) | > 100 µM (inactive) | > 100 µM (inactive) | > 100 µM (inactive) | > 100 µM (inactive) | > 100 µM (inactive)
14 | Sc1nn2c(COc3ccc(Cl)cc3)nnc2s1 | > 100 µM (inactive) | > 100 µM (inactive) | > 100 µM (inactive) | > 100 µM (inactive) | > 100 µM (inactive) | > 100 µM (inactive) | > 100 µM (inactive) | > 100 µM (inactive) | > 100 µM (inactive) | > 100 µM (inactive) | > 100 µM (inactive) | – | – | > 100 µM (inactive) | > 100 µM (inactive) | > 100 µM (inactive) | > 100 µM (inactive) | > 100 µM (inactive) | > 100 µM (inactive) | > 100 µM (inactive)
15 | COc1ccc(-c2oc3cc(O)cc(O)c3c(=O)c2OC)cc1 [ERMANIN] | 31.2 µM (inactive) | – | 24.3 µM (inactive) | 31 µM (inactive) | 24.3 µM (inactive) | 17.8 µM (inactive) | 2.48 µM (inactive) | – | 32.7 µM (inactive) | 21.5 µM (inactive) | – | 38.2 µM (inactive) | – | 59.8 µM (inactive) | 31 µM (inactive) | 21 µM (inactive) | 27.2 µM (inactive) | 26.6 µM (inactive) | 27 µM (inactive) | 19.5 µM (inactive)

— ChEMBL document CHEMBL1201862, “PubChem BioAssay data set” (2004)
